Each compound was assayed against Protein Tat (Human immunodeficiency virus type 1 group M subtype B (isolate HXB2)) (UniProt P04608) (assay: HIV-1 Tat–TAR interaction blockers – biochemical, fluorescence polarization, FAM-labeled TAR RNA, counter-screen for Vif-APOBEC3G degradation inhibitor project, dose response (AID 1117361)). Settings: Tat-TAR RNA binding.
Chain of Protein Tat (Human immunodeficiency virus type 1 group M subtype B (isolate HXB2)) (P04608 whole entry, looked up): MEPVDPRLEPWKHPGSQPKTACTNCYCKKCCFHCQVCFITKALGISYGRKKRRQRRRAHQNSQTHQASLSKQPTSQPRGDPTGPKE

How did the IC50 turn out when `O=C1NC(=O)N(Cc2ccc(F)cc2)C(=O)/C1=C\C=C\c1ccco1` was run?
Its IC50 is 42.3 µM.

How did the IC50 turn out when `Cc1cc(NC(=O)Cc2cccs2)no1` was run?
The IC50 was 55.9 µM.

How did the IC50 turn out when `CN(C)c1ccc(N=C/C=C2/N(C)c3ccccc3C2(C)C)cc1` was run?
Its IC50 is 64.4 µM.

Which IC50 does the source give for `COc1cc(/C=C/C=C2/CC/C(=C/C=C/c3ccc(O)c(OC)c3)C2=O)ccc1O` here?
The IC50 was 44.8 µM.

How did the IC50 turn out when `O=C(Nc1ccccc1)c1ccc2nc(-c3ccco3)c(-c3ccco3)nc2c1` was run?
Its IC50 is 7.63 µM.

For `C[c-]1[c-](C)[c-](C)[c-](C)[c-]1C.[Fe].c1cc2nccc(N3CCCC3)[c-]2c1` (stereo unspecified), which IC50 is on record?
The IC50 was 2.81 µM.

How did the IC50 turn out when `Cc1sc2ncnc(SCc3ccco3)c2c1C` was run?
The IC50 was 17.6 µM.

`O=S(=O)(Nc1nccs1)c1ccc(Nc2nnc(-c3ccccc3)c3ccccc23)cc1` was tested. Which IC50 did it give?
Its IC50 is 47.7 µM.

For `CCCCC1=CC2=CC(=O)C(C)(OC(=O)C3CCCC3)C(=O)C2=CO1` (stereo unspecified), which IC50 is on record?
Its IC50 is 53.6 µM.

For `COc1ccc2nc(-c3ccco3)c(-c3ccco3)nc2c1`, which IC50 is on record?
The IC50 was 3.13 µM.

For `Cc1ccc(/C=C/C2=Cc3c(sc(NC(=O)CSc4n[nH]c(N)n4)c3C#N)C(C)(C)C2)o1`, which IC50 is on record?
Its IC50 is 3.04 µM.

For `Cc1oc(C)c2c(=O)ccc3c(c12)OC(N)=C(C#N)C3c1ccccc1` (stereo unspecified), which IC50 is on record?
The IC50 was 81.9 µM.

For `CC(C)(C)C1C/C(=C/c2ccco2)C(=O)/C(=C/c2ccco2)C1` (stereo unspecified), which IC50 is on record?
The IC50 was 7.08 µM.

With `O=c1oc2c3c4c(cc2s1)CCCN4CCC3` as the compound, how does the IC50 read?
The IC50 was 26 µM.

For `O=c1[nH]c(=S)[nH]c2c1C(c1ccc(Br)cc1)c1c([nH]c(=S)[nH]c1=O)O2`, which IC50 is on record?
Its IC50 is 2.72 µM.

How did the IC50 turn out when `O=S(=O)(c1ccc2nc(-c3ccco3)c(-c3ccco3)nc2c1)N1CCOCC1` was run?
The IC50 was 44.9 µM.

`COc1ccccc1N1C(=O)NC(=O)/C(=C/c2ccc([N+](=O)[O-])s2)C1=O` was tested. Which IC50 did it give?
The IC50 was 17.6 µM.

For `COc1ccc(-n2c(C)cc(C(=O)CSc3nn4c(=O)c(C(C)(C)C)nnc4s3)c2C)cc1`, which IC50 is on record?
The IC50 was 62.7 µM.

How did the IC50 turn out when `CCn1cc(Br)c(C(=O)Nc2cccc(SC)c2)n1` was run?
The IC50 was 1.44 µM.

`O=C1NC(=O)N(c2ccc(Cl)cc2)C(=O)/C1=C\c1ccc(Sc2nc3ccccc3[nH]2)o1` was tested. Which IC50 did it give?
The IC50 was 3.41 µM.

Which IC50 does the source give for `Cc1c2ccccc2nc2c(F)c(N(C)C)c(F)c(F)c12` here?
The IC50 was 6.51 µM.

With `Cc1cc(/C=C2\C(=O)NC(=O)N(c3cccc(F)c3)C2=O)c(C)n1-c1cc(C(=O)O)cc(C(=O)O)c1` as the compound, how does the IC50 read?
The IC50 was 2.95 µM.

For `CNc1ccc(Br)cc(C(=O)/C=C/c2ccc(OC)cc2OC)c1=O`, which IC50 is on record?
The IC50 was 52 µM.

For `CCN1C[C@@H]2[C@@H]3C(=O)N(Cc4ccccc4)C(=O)[C@@H]3[C@](C)(C(=O)OC)N2C1=NC1CCCCC1`, which IC50 is on record?
The IC50 was 79.8 µM.

With `CCOC(=O)c1ccc(CC(=O)c2ccc(O)c(O)c2O)o1` as the compound, how does the IC50 read?
Its IC50 is 74 µM.

With `Cc1ccccc1Cc1c(C)nc2c(C(=O)NCc3ccc4c(c3)OCO4)cnn2c1C` as the compound, how does the IC50 read?
Its IC50 is 1.06 µM.

Which IC50 does the source give for `COc1ccccc1C1C=C(c2ccc(C)cc2)Nc2nnnn21` (stereo unspecified) here?
The IC50 was 84.4 µM.

With `Cc1ccc(C(=O)Nc2ccc(O)c(C(=O)O)c2)o1` as the compound, how does the IC50 read?
Its IC50 is 19.4 µM.

For `Cc1ccn2cc(-c3nonc3C)cc2c1`, which IC50 is on record?
Its IC50 is 21.4 µM.

With `O=C(NN1C(=O)/C(=C/C=C/c2ccco2)SC1=S)c1ccccc1O` as the compound, how does the IC50 read?
Its IC50 is 4.46 µM.

Which IC50 does the source give for `CCOc1cc(N2CCOCC2)c(OCC)cc1NC(=O)CSc1ncn[nH]1` here?
The IC50 was 35.7 µM.

How did the IC50 turn out when `CCOC(=O)C1CCCN(C(=O)c2ccc(CNc3c(N4CCC(C)CC4)c(=O)c3=O)cc2)C1` (stereo unspecified) was run?
The IC50 was 65.3 µM.

Which IC50 does the source give for `O=C(COc1ccccc1Cl)c1ccc[nH]1` here?
The IC50 was 14.6 µM.

With `O=C1/C(=C/C=C/c2ccco2)SC(=S)N1c1ccc(O)cc1` as the compound, how does the IC50 read?
The IC50 was 19.1 µM.

With `O=C(O)C1Nc2c(O)cc(Cl)c([N+](=O)[O-])c2C2C=CCC12` (stereo unspecified) as the compound, how does the IC50 read?
Its IC50 is 1.64 µM.

For `S=c1[nH]nc(-c2cccnc2)n1/N=C/C=C/c1ccco1`, which IC50 is on record?
Its IC50 is 5.3 µM.

With `Cc1ccc(N2C(=O)/C(=C/c3ccc(CN(CCC#N)S(C)(=O)=O)o3)C(=O)NC2=S)cc1` as the compound, how does the IC50 read?
Its IC50 is 90 µM.

For `O=[N+]([O-])c1c(NCCO)cc(Sc2nc3ccccc3s2)c2nonc12`, which IC50 is on record?
Its IC50 is 90.1 µM.

With `COc1cc(CC(=O)OCC(=O)Nc2cccc([N+](=O)[O-])c2)cc(OC)c1OC` as the compound, how does the IC50 read?
The IC50 was 26.6 µM.

`Cc1nc2cc(-c3ccsc3-n3c(C)ccc3C)[nH]n2c(=O)c1Cl` was tested. Which IC50 did it give?
Its IC50 is 2.17 µM.

With `COC(=O)c1ccc(C(=O)OC)c(NC(=O)Cc2cccs2)c1` as the compound, how does the IC50 read?
Its IC50 is 64.8 µM.

`O=C(NCCCO)c1ccc2nc(-c3ccco3)c(-c3ccco3)nc2c1` was tested. Which IC50 did it give?
The IC50 was 3.58 µM.

`CCCCn1c(=NC(=O)c2cccnc2)c(C#N)cc2c(=O)n3cccc(C)c3nc21` was tested. Which IC50 did it give?
Its IC50 is 4.74 µM.

`CC(C)c1ccc(N2C(=O)NC(=O)/C(=C\C=C\c3ccco3)C2=O)cc1` was tested. Which IC50 did it give?
The IC50 was 34.2 µM.

`CCCc1cc(=O)oc2cc(C)c(CN3CCCC3)c(O)c12` was tested. Which IC50 did it give?
Its IC50 is 16.9 µM.

How did the IC50 turn out when `CCOC(=O)C1CCN(C(=O)COc2ccc(S(=O)(=O)NC(C)C)cc2)CC1` was run?
Its IC50 is 81.8 µM.

For `Cc1cc(C(=O)CSc2nnc(-c3ccco3)o2)c(C)n1Cc1ccco1`, which IC50 is on record?
The IC50 was 4.41 µM.

Which IC50 does the source give for `O=C(O)c1ccc(Cl)c2c1C1C=CCC1C(c1ccccn1)N2` (stereo unspecified) here?
The IC50 was 2.81 µM.

`CC1CCCCC1NC(=O)COC(=O)c1c2c(nc3ccccc13)/C(=C/c1ccco1)CC2` (stereo unspecified) was tested. Which IC50 did it give?
Its IC50 is 7.58 µM.

For `Oc1cc2c(cc1O)C1c3ccc(O)c(O)c3OCC1(O)C2` (stereo unspecified), which IC50 is on record?
Its IC50 is 11.7 µM.

For `Cc1n[nH]c(=S)n(NC(=O)/C=C/C(=O)Nn2c(=S)[nH]nc(C)c2=O)c1=O`, which IC50 is on record?
Its IC50 is 18.2 µM.

`CCc1c(C)sc(NC(=O)c2cc(-c3ccco3)on2)c1C#N` was tested. Which IC50 did it give?
The IC50 was 52.4 µM.

For `C/C(=N\Nc1ccc(Cl)c(C(=O)O)c1)c1ccc[nH]1`, which IC50 is on record?
The IC50 was 21.4 µM.

Which IC50 does the source give for `Oc1cccc(C=NCc2ccccc2)c1O` here?
The IC50 was 6.47 µM.

`O=C(Nc1nc(-c2ccco2)c(-c2ccco2)s1)C1CCC1` was tested. Which IC50 did it give?
The IC50 was 2.65 µM.

How did the IC50 turn out when `Oc1ccc(N=Cc2sc3ccccc3c2Cl)cc1` was run?
Its IC50 is 62.3 µM.
